# According to patent US9238795B2, “Populations of smooth muscle cells of specific embryonic lineages” (Cambridge Enterprise Limited, priority 2011, dated 2016):
# Entries after “also recorded” stand apart in the source; their conditions may differ.
# B1: activin A: dimeric polypeptide stimulating the Activin/Nodal pathway (protein, UniProt P08476 311-426, looked up)
# Inhibin beta A chain: GLECDGKVNICCKKQFFVSFKDIGWNDWIIAPSGYHANYCEGECPSHIAGTSGSSLSFHSTVINHYRMRGHSPFANLKSCCVPTKLRPMSMLYYDDGQNIIKKDIQNMIVEECGCS
# modifications: Inhibin beta A chain
# B2: BMP4: Bone Morphogenic Protein 4, TGFβ ligand stimulating SMAD1, SMAD5 and SMAD9 signalling (protein, UniProt P12644 293-408, looked up)
# Bone morphogenetic protein 4: SPKHHSQRARKKNKNCRRHSLYVDFSDVGWNDWIVAPPGYQAFYCHGDCPFPLADHLNSTNHAIVQTLVNSVNSSIPKACCVPTELSAISMLYLDEYDKVVLKNYQEMVVEGCGCR
# B3: Noggin: a BMP antagonist (protein, UniProt Q13253 28-232, looked up)
# Noggin: QHYLHIRPAPSDNLPLVDLIEHPDPIFDPKEKDLNETLLRSLLGGHYDPGFMATSPPEDRPGGGGGAAGGAEDLAELDQLLRQRPSGAMPSEIKGLEFSEGLAQGKKQRLSKKLRRKLQMWLWSQTFCPVLYAWNDLGSRFWPRYVKVGSCFSKRSCSVPEGMVCKPSKSVHLTVLRWRCQRRGGQRCGWIPIQYPIISECKCSC
# Assays:
# Assay type in all cases: cell-based, human
# [1] = test system: hPSC-derived SMCs and rat aortic SMCs; experiment: MMP and TIMP expression after IL-1β treatment (qRT-PCR); conditions: IL-1β 10 ng/ml
# Method: (§1) Total RNA was extracted with RNeasy Mini kit according to the manufacturer's instructions (QIAGEN). One microgram of RNA was reverse-transcribed with Fermentas Maxima First Strand cDNA Synthesis Kit. Quantitative polymerase chain reaction (QPCR) mixtures were prepared as described (Applied Biosystems SYBR Green PCR Master Mix). QPCR reactions were performed by Applied Biosystems 7500 Fast Real-Time PCR System with technical duplicates and normalized to Porphobilinogen Deaminase (PBGD) in the same run. Error bars on all QPCR graphs represent standard error of mean from three independent biological replicates.
# Only NE-SMCs proliferated in response to TGF-β1 (FIGS. 24, 25). TGF-β1 may have enhanced cell proliferation by autocrine production of TGF-β2 and PDGFA. We investigated whether TGF-β1 stimulated greater auto-induction of TGF-β2 and PDGFA in SMCs of a neuroectoderm origin. […] Correspondingly, elevated TGFB2 and PDGFA protein levels were found in NE-SMC lysates after TGF-β1 treatment (FIG. 22). Taken together, the data on requirement for MKL2 and their unique proliferative and secretory responses validate the hypothesis that our different SMC subtypes are analogous to the distinct lineage-dependent SMC populations documented in vivo. […]
# NE-SMCs [2] = experiment: Cell cycle analysis; conditions: after 24 h, compared to vehicle control
# Text: (§2) To confirm that we had generated origin-specific SMC subtypes, we used cytokines known to induce unique responses in aortic SMCs of distinct origins. Angiotensin II (Ang II) promotes medial hyperplasia in the ascending aorta (neuroectoderm derivative) but not the descending aorta (mesoderm derivative), TGF-β1 also encourages greater cell proliferation in SMCs of neuroectoderm origin compared to those of mesodermal origin. […] Cell cycle analysis confirmed that Ang II, TGF-β1 or serum each increased the proportion of NE-SMCs in S and G2-M phases compared to vehicle control after 24 h (FIGS. 25A and 25B).
# NE-SMC = experiment: Proliferation response by MTT assay; conditions: over 3 d; Ang II 1 μM, TGF-β1 5 ng/ml, serum 10%
# Text: as §2
# PM-SMC = experiment: Proliferation response by MTT assay; conditions: over 3 d; Ang II 1 μM, TGF-β1 5 ng/ml, serum 10%
# Text: as §2
# LM-SMC = experiment: Proliferation response by MTT assay; conditions: over 3 d; Ang II 1 μM, TGF-β1 5 ng/ml, serum 10%
# Text: as §2
# derived SMCs [3] = experiment: Contraction study; conditions: for Percentage of all derived SMCs that contracted: upon carbachol or angiotensin II treatment
# Method: (§3) On culture dishes, SMCs were loaded with the calcium-sensitive fluorophore, Fluo-4 AM (2.5 μM; Molecular Probes). Cells were typsinised into single-cell suspension for calcium flux measurement using the CyAn ADP flow cytometer (Packman Coulter). Contraction was induced by treating the cells with carbachol (100 μM). Fluo-4 was excited by the 488 nm laser and the fluorescence emission was measured by the FL1 channel. Cells were analysed just before addition of carbachol, 1 minute and 3 minutes after addition. On the other hand, contraction images of adherent SMCs were acquired by an inverted microscope (Olympus) before and after 10 minutes of carbachol treatment.
# Over 50% and 20% of all derived SMCs contracted upon carbachol and angiotensin II treatments, respectively.
# hESCs = experiment: QPCR analysis of mesoderm subtype markers in differentiating hESCs; conditions: for Expression of the lateral plate marker KDR: in the presence of activin A (10 ng/ml), BMP4 0 to 100 ng/ml
# Method: Human embryonic stem cells (hESCs) were cultured in chemically defined medium (CDM) with activin A (10 ng/mL) and FGF2 (20 ng/mL) to maintain pluripotency (Vallier et al, 2005).
# An efficient 36 h protocol to differentiate hESCs into early mesoderm was named FlyB (F, FGF2 at 20 ng/ml; Ly, LY294002 at 10 μM and B, BMP4 at 10 ng/ml). Differentiation of paraxial mesoderm can be induced by removal of BMP4 and blockage of the PI3K pathway (1.5 day FLyB+3.5 days FLy, where F is FGF2 at 5-25 ng/ml and Ly is LY294002 at 5-10 μM). Differentiation of lateral plate mesoderm can be induced by increasing the levels of BMP4 and removal of Ly (1.5 day FLyB+3.5 days FB, where F is FGF2 at 5-25 ng/ml and B is BMP4 at […]).
# as §1
# The protocol used is shown schematically in FIG. 1A, depicting the growth factors used and the duration of the treatment. For the first 36 hours, growth factors used were FLyB10 [FGF2 (20 ng/mL), BMP4 (10 ng/mL) and LY294002 (10 μM)] to induce primitive streak). The subsequent 3.5 days of differentiation specifies mesoderm subtypes. FLy [FGF2 (20 ng/mL) and LY294002 (10 μM)] for somitic mesoderm; FB50 [FGF2 (20 ng/mL) and BMP4 (50 ng/mL)] for lateral mesoderm.
# QPCR analysis was performed for Brachyury, MEOX1 and FLK1 in hESCs grown according to the protocol depicted in FIG. 1A and harvested at day 5. The BMP4 gradient tested ranged from 0 ng/mL (Nog) to 100 ng/mL (B100). The bars in FIG. 2 represent the absence or presence of activin A (A) added at 10 ng/ml respectively. […] Therefore, absence of activin A promoted mesoderm formation.
# We then evaluated the effect of 10 μM LY294002 (Ly) on mesoderm subtype specification. QPCR analysis of LMO2, CD31, PECAM1, NKX2.5, ISL1, MEOX1, TBX6, TCF15 and PAX1 was performed in hESCs grown for 36 h in FLyB10 and then for 3.5 additional days in F or FB50, with (RH bars) or without (LH bars) […]. […] On the other hand, the presence of Ly promoted the expressions of somitic markers—MEOX1 and TBX6. […] Again, the presence of 50 ng/ml BMP4 (B50) inhibited the expression of all paraxial markers and promoted the expression of lateral plate markers.
# derived SMCs [4] = experiment: Calcium flux measurement with Fluo-4; conditions: carbachol 100 μM
# Method: as §3
# Changes of calcium signalling in cells are indicative of their contractile properties in response to carbachol, a potent vasoconstrictor. The origin-specific SMCs were loaded with fluo-4, a calcium-sensitive dye, prior to the addition of carbachol (FIG. 13) and fluorescent emission from the fluo-4 measured over time (T) after the addition of carbachol to the origin-specific SMCs. Hela cells were used as negative control.
# To assess SMC contractile potential, we initially performed immunostaining for vinculin and phalloidin staining for actin filaments, Well-developed focal adhesion complexes were detected in all three SMC subtypes. The cells were then preloaded with a calcium-sensitive dye, Fluo-4. Carbachol (100 μM) stimulated an increase in Fluo-4 fluorescence intensity in the derived SMCs within 1 min of treatment (FIG. 14), indicating increased intracellular calcium flux. After 2 min of treatment, Fluo-4 intensity decreased, approaching original basal levels by 5 min.
# NE-SMCs [5] = experiment: Auto-induction of TGF-β2 and PDGFA (qRT-PCR, western blot)
# Method: as §1
# To obtain protein extracts, cells were washed twice with ice-cold PBS. Ice-cold RIPA buffer was then added to the cells. Cells were scraped off the culture dishes and transferred into a centrifuge tube. Suspension was agitated by an orbital shaker for 15 minutes to lyse the cells at 4° C. Lysate was centrifuged at 14,000 g in a precooled centrifuge for 15 minutes and the supernatant was kept frozen at −80. Protein concentrations were determined using Thermo Scientific BCA Protein Assay Kit. 20 μg total protein was separated by SDS-PAGE and on stacking gel (30% acrylamide, 1M Tris, 10% SDS, 10% APS, TEMED) then transferred to a nitrocellulose membrane. […]
# [6] = 50 ng/ml BMP4 (B50), 36 h FLyB10 then 3.5 days
molecule,measurement,setting,value
IL-1β: an atherogenic cytokine,Induction of Mmp9 relative to control in rat SMCs versus hPSC-derived SMCs,[1]; 6 h,~100 fold
same,MMP9 and TIMP1 expression levels,[1]; SMC subtypes and rat SMCs of distinct origins,differentially activated
"angiotensin II: vasoconstrictor; promotes medial hyperplasia in the ascending aorta (DRVYIHPF; Angiotensin-2; UniProt P01019 25-32, looked up) [reference compound]",Proportion of cells in S and G2-M phases,NE-SMCs [2],increased
same,Proliferation,NE-SMC,proliferated
same,Proliferation,PM-SMC,did not
same,Proliferation,LM-SMC,did not
same,Percentage of all derived SMCs that contracted,derived SMCs [3],> 20%
"O=c1cc(N2CCOCC2)oc2c(-c3ccccc3)cccc12 [LY294002, 2-morpholin-4-yl-8-phenylchromen-4-one, reference compound]","Expression of lateral plate markers LMO2, PECAM1, NKX2-5, ISL1","hESCs; 10 μM LY294002 in F or FB50, compared to no LY294002",had no effect or inhibited; also recorded: significantly downregulated
same,"Expression of paraxial markers MEOX1, TBX6, TCF15, PAX1","hESCs; 10 μM LY294002 in the presence of 20 ng/ml FGF2 (F) alone, versus no LY294002",promote paraxial mesoderm patterning; also recorded: significantly promoted
C[N+](C)(C)CCOC(N)=O [carbachol],Fluo-4 fluorescence intensity (intracellular calcium flux),derived SMCs [4],transient increase
same,Time to increase in Fluo-4 fluorescence intensity,derived SMCs [4],≤ 1 min
same,Fluo-4 fluorescence intensity (intracellular calcium flux),derived SMCs [4]; listed as Carbachol,increase
same,Change of cell surface area in contracting cells,"derived SMCs [3]; 10 min of carbachol treatment, n=20",10-20%
same,Percentage of all derived SMCs that contracted,derived SMCs [3],Over 50%
TGF-β1: homodimeric polypeptide which regulates proliferation and differentiation,TGFB2 and PDGFA expression,"NE-SMCs [5]; 10 h of TGF-β1 (5 ng/ml), compared with vehicle control, only in NE-SMCs",significantly upregulated
same,TGFB2 and PDGFA protein levels in lysates,"NE-SMCs [5]; after TGF-β1 treatment, western blot",elevated
same,Proportion of cells in S and G2-M phases,NE-SMCs [2],increased
same,Proliferation,NE-SMC,proliferated
same,Proliferation,PM-SMC,did not
same,Proliferation,LM-SMC,did not
B1,"Expression of Brachyury (T), MEOX1 and FLK1","hESCs; absence versus presence of activin A at 10 ng/ml, day 5",upregulated
same,Requirement for mesoderm patterning,hESCs; hESCs harvested at day 5,not required
B2,Expression of all paraxial markers,hESCs; [6],inhibited
same,Expression of lateral plate markers,hESCs; [6],promoted
same,Expression of FLK1,"hESCs; hESCs harvested at day 5, BMP4 0 to 100 ng/mL",increased
same,Expression of the lateral plate marker KDR,hESCs; day 5,promote the expression
B3,Expression of the lateral plate marker KDR,hESCs; day 5,same effect as B0
